Experimental data as given in patent publication US8017654B2, “Combination cancer therapy with bis(thiohydrazide) amide compounds” (priority 2005, dated 2011).

Assays:
[1] = Phase I trial, pharmacokinetics in plasma by LC/MS during cycle 1
Experimental: Pharmacokinetic (PK) studies were performed during cycle 1 using liquid chromatography/mass spectrometry (LC/MS) to measure both compounds in plasma. Heat shock protein 70 (Hsp70) was measured in plasma before and after treatment.

[2] = co-administered with Compound (1) 44-525 mg/m2

PK linearity ([1]; Compound (1) 44-525 mg/m2, unaffected by paclitaxel dose) | serious effects specifically attributable to Compound (1) (35 patients, 8 dose levels, with paclitaxel) | Structure (SMILES) | Paclitaxel clearance, trend with Compound (1) dose [1, 2] | Paclitaxel terminal phase half-life, effect of Compound (1) dose [1, 2] | Paclitaxel dose limiting toxicities (in vivo)
– | – | CC(=O)O[C@H]1C(=O)[C@@]2(C)[C@H]([C@H](OC(=O)c3ccccc3)[C@]3(O)C[C@H](OC(=O)[C@H](O)[C@@H](NC(=O)c4ccccc4)c4ccccc4)C(C)=C1C3(C)C)[C@]1(OC(C)=O)CO[C@@H]1C[C@@H]2O [Paclitaxel, paclitaxel] | significant trend toward decreasing clearance | without affecting the terminal phase half-life | occurred in a single patient in each of the top three dose levels
linear PK | No serious effects | CN(NC(=O)CC(=O)NN(C)C(=S)c1ccccc1)C(=S)c1ccccc1 [Compound (1)] | – | – | –
